Laboratory results as given in patent US20150105252A1, “SUBSTITUTED PYRAZOLES AS HERBICIDES” (E I DU PONT DE NEMOURS AND COMPANY, priority 2013, published 2015).

Tests used:
[1] = system: pigweed; test: Test A postemergence; assay type: in vivo, Amaranthus retroflexus; settings: Postemergence
Procedure, shortened: (§1)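 Scoring was visual, on a scale where 100 means complete control and 0 means no effect, comparing treated with untreated plants around 10 days post-application. Compounds in surfactant-containing non-phytotoxic solvent were sprayed onto soil preemergence or onto one- to two-leaf seedlings (2–10 cm) postemergence.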

[2] = system: foxtail, giant; test: Test A postemergence; assay type: in vivo, Setaria faberii
Procedure, shortened: as §1

[3] = system: blackgrass; test: Test C preemergence; assay type: in vivo, Alopecurus myosuroides; settings: preemergence; for Plant response rating, Blackgrass: 125 g ai/ha, scale 0 to 100, 0 = no effect, 100 = complete control
Procedure, shortened: (§2)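 Seeds were sown in a loam soil–sand blend and sprayed preemergence with compounds formulated in a non-phytotoxic solvent mixture containing surfactant. Postemergence plants, grown in peat/vermiculite medium to 2–18 cm (1- to 4-leaf stage), received the same formulation. After 13 to 15 days in a greenhouse, injury was rated visually against controls (0 = no effect, 100 = complete control).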

[4] = system: sedge, umbrella; test: Test B flood; assay type: in vivo, Cyperus difformis; settings: 250 g ai/ha, visual rating on 0 to 100 scale (0 no effect, 100 complete control), 13 to 15 days
Procedure, shortened: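 Flooded-pot test: compound dosed into 3 cm of standing water above soil when plants had two leaves. Visual control ratings (0–100) versus untreated plants after 13–15 d.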

[5] = system: morningglory; test: Test A postemergence; assay type: in vivo, Ipomoea spp.; settings: Postemergence
Procedure, shortened: as §1

[6] = system: soybean; test: Test C preemergence; assay type: in vivo, Glycine max
Procedure, shortened: as §2

[7] = system: wheat; test: Test A preemergence; assay type: in vivo, Triticum aestivum; settings: preemergence; for Wheat plant response rating (0 to 100 scale): 125 g ai/ha, visual injury approx. 10 days after treatment; for Wheat plant response rating: 500 g ai/ha, visual injury after approx. 10 days, 0 to 100 scale (0 no effect, 100 complete control)
Procedure, shortened: as §1

[8] = system: velvetleaf; test: Test C preemergence; assay type: in vivo, Abutilon theophrasti
Procedure, shortened: as §2

[9] = system: nutsedge, yellow; test: Test C preemergence; assay type: in vivo, Cyperus esculentus
Procedure, shortened: as §2

[10] = system: pigweed; test: Test C preemergence; assay type: in vivo, Amaranthus retroflexus
Procedure, shortened: as §2

[11] = system: corn; test: Test A preemergence; assay type: in vivo, Zea mays; settings: preemergence; for Corn plant response rating (0 to 100 scale): 125 g ai/ha, visual injury approx. 10 days after treatment; for Corn plant response rating: 500 g ai/ha, visual injury after approx. 10 days, 0 to 100 scale (0 no effect, 100 complete control)
Procedure, shortened: as §1

[12] = system: morningglory; test: Test C preemergence; assay type: in vivo, Ipomoea coccinea
Procedure, shortened: as §2

[13] = system: barnyardgrass; test: Test A postemergence; assay type: in vivo, Echinochloa crus-galli
Procedure, shortened: as §1

[14] = 125 g ai/ha, 0 to 100 scale, 0 no effect, 100 complete control
[15] = 500 g ai/ha, 0 to 100 scale (0 no effect, 100 complete control)
[16] = Postemergence, 500 g ai/ha, 0 to 100 scale (0 no effect, 100 complete control)
[17] = postemergence, 125 g ai/ha, about 10 days, visual rating on 0 to 100 scale (0 no effect, 100 complete control)
[18] = 31 g ai/ha, visual rating, scale 0 to 100 (0 no effect, 100 complete control), 13 to 15 days
[19] = 62 g ai/ha, scale 0 to 100 (0 no effect, 100 complete control), 13 to 15 days
[20] = 250 g ai/ha, scale 0 to 100, 0 is no effect, 100 is complete control
[21] = preemergence, 31 g ai/ha, visual rating, scale 0 to 100 (0 no effect, 100 complete control), 13 to 15 days
[22] = preemergence, 62 g ai/ha, scale 0 to 100 (0 no effect, 100 complete control), 13 to 15 days
[23] = preemergence, 125 g ai/ha, 13 to 15 days, scale 0 to 100, 0 = no effect, 100 = complete control
[24] = preemergence, 250 g ai/ha, scale 0 to 100, 0 is no effect, 100 is complete control
[25] = Postemergence, 125 g ai/ha, 0 to 100 scale, 0 no effect, 100 complete control
[26] = Preemergence, rate head not shown (block before 16 g ai/ha), scale 0 to 100

SMILES | Pigweed plant response rating [1, 14] | Pigweed plant response rating [1, 15] | Foxtail, Giant plant response rating [2, 16] | Blackgrass plant response rating [3, 18] | Blackgrass plant response rating [3, 19] | Plant response rating, Blackgrass ([3]; 13 to 15 days) | Blackgrass plant response rating [3, 20] | Plant response rating, Sedge, Umbrella [4] | Morningglory plant response rating [5, 14] | Morningglory plant response rating [5, 15] | Soybean plant response rating [6, 22] | Plant response rating, Soybean [6, 23] | Soybean plant response rating [6, 24] | Wheat plant response rating (0 to 100 scale) [7] | Velvetleaf plant response rating [8, 22] | Plant response rating, Velvetleaf [8, 23] | Velvetleaf plant response rating [8, 24] | Nutsedge, Yellow plant response rating [9, 22] | Plant response rating, Nutsedge, Yellow [9, 23] | Nutsedge, Yellow plant response rating [9, 24] | other results
Cc1cc(C(=O)NC(C)C)nn1Cc1ccnc(C(F)(F)F)c1 [Compound 197] | 100 | 100 | 90 | 0 | 85 | 90 | 90 | 85 | 80 | 100 | 80 | 98 | 98 | 0 | 90 | 65 | 100 | 25 | 75 | 85 | Foxtail, Giant plant response rating [2, 17]: 80; Soybean plant response rating [6, 21]: 45; Wheat plant response rating [7]: 50; Velvetleaf plant response rating [8, 21]: 25; Nutsedge, Yellow plant response rating [9, 21]: 0; Pigweed plant response rating [10, 21]: 100; Pigweed plant response rating [10, 22]: 100; Plant response rating, Pigweed [10, 23]: 100; Pigweed plant response rating [10, 24]: 100; Corn plant response rating (0 to 100 scale) [11]: 0; Corn plant response rating [11]: 90; Morningglory plant response rating [12, 21]: 75; Morningglory plant response rating [12, 22]: 100; Plant response rating, Morningglory [12, 23]: 100; Morningglory plant response rating [12, 24]: 100; Barnyardgrass plant response rating [13, 16]: 100; Barnyardgrass plant response rating [13, 17]: 80
CCCNC(=O)c1cc(CCC)n(Cc2cc(C(F)(F)F)nn2C)n1 [Compound 198] | 100 | 100 | 100 | 85 | 90 | 90 | 90 | 100 | 80 | 100 | 90 | 98 | 98 | 60 | 85 | 100 | 100 | 15 | 30 | 65 | Foxtail, Giant plant response rating [2, 17]: 90; Soybean plant response rating [6, 21]: 75; Wheat plant response rating [7]: 100; Velvetleaf plant response rating [8, 21]: 35; Nutsedge, Yellow plant response rating [9, 21]: 5; Pigweed plant response rating [10, 21]: 100; Pigweed plant response rating [10, 22]: 100; Plant response rating, Pigweed [10, 23]: 100; Pigweed plant response rating [10, 24]: 100; Corn plant response rating (0 to 100 scale) [11]: 0; Corn plant response rating [11]: 90; Morningglory plant response rating [12, 21]: 95; Morningglory plant response rating [12, 22]: 100; Plant response rating, Morningglory [12, 23]: 100; Morningglory plant response rating [12, 24]: 100; Barnyardgrass plant response rating [13, 16]: 100; Barnyardgrass plant response rating [13, 17]: 90
CCc1cc(C(=O)NCC2CC2)nn1Cc1ccnc(C(F)(F)F)c1 [Compound 199] | 100 | 100 | 90 | 90 | 90 | 90 | 90 | 90 | 90 | 100 | 55 | 90 | 95 | 90 | 100 | 100 | 100 | 45 | 80 | 85 | Foxtail, Giant plant response rating [2, 17]: 90; Soybean plant response rating [6, 21]: 30; Wheat plant response rating [7]: 100; Velvetleaf plant response rating [8, 21]: 40; Nutsedge, Yellow plant response rating [9, 21]: 30; Pigweed plant response rating [10, 21]: 100; Pigweed plant response rating [10, 22]: 100; Plant response rating, Pigweed [10, 23]: 100; Pigweed plant response rating [10, 24]: 100; Corn plant response rating (0 to 100 scale) [11]: 70; Corn plant response rating [11]: 90; Morningglory plant response rating [12, 21]: 60; Morningglory plant response rating [12, 22]: 100; Plant response rating, Morningglory [12, 23]: 98; Morningglory plant response rating [12, 24]: 100; Barnyardgrass plant response rating [13, 16]: 90; Barnyardgrass plant response rating [13, 17]: 70
CCc1cc(C(=O)NC2CC2)nn1Cc1ccnc(OCC(F)(F)F)c1 [Compound 200] | 100 | 100 | 100 | 50 | 80 | 90 | 90 | 90 | 100 | 100 | 70 | 70 | 85 | 0 | 70 | 100 | 100 | 25 | 40 | 60 | Foxtail, Giant plant response rating [2, 17]: 100; Soybean plant response rating [6, 21]: 50; Wheat plant response rating [7]: 100; Velvetleaf plant response rating [8, 21]: 40; Nutsedge, Yellow plant response rating [9, 21]: 20; Pigweed plant response rating [10, 21]: 100; Pigweed plant response rating [10, 22]: 100; Plant response rating, Pigweed [10, 23]: 100; Pigweed plant response rating [10, 24]: 100; Corn plant response rating (0 to 100 scale) [11]: 60; Corn plant response rating [11]: 90; Morningglory plant response rating [12, 21]: 55; Morningglory plant response rating [12, 22]: 95; Plant response rating, Morningglory [12, 23]: 98; Morningglory plant response rating [12, 24]: 100; Barnyardgrass plant response rating [13, 16]: 100; Barnyardgrass plant response rating [13, 17]: 90
CCc1cc(C(=O)NC2CC2)nn1Cc1cc(C(F)(F)C(F)(F)F)nn1C [Compound 226] | 100 | 100 | 90 | 60 | 85 | 70 | 90 | 90 | 70 | 100 | 70 | 95 | 100 | 40 | 80 | 100 | 100 | 5 | 5 | 20 | Foxtail, Giant plant response rating [2, 25]: 80; Plant response rating, Soybean [6, 26]: 10; Plant response rating, Velvetleaf [8, 26]: 25; Plant response rating, Nutsedge, Yellow [9, 26]: 0; Plant response rating, Pigweed [10, 26]: 100; Pigweed plant response rating [10, 22]: 100; Plant response rating, Pigweed [10, 23]: 100; Pigweed plant response rating [10, 24]: 100; Corn plant response rating (0 to 100 scale) [11]: 30; Corn plant response rating [11]: 50; Plant response rating, Morningglory [12, 26]: 85; Morningglory plant response rating [12, 22]: 85; Plant response rating, Morningglory [12, 23]: 100; Morningglory plant response rating [12, 24]: 100; Barnyardgrass plant response rating [13, 25]: 60; Barnyardgrass plant response rating [13, 16]: 90
